# Experimental data: PubChem BioAssay (NCI)
#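 Interpolation was linear, between the two tested concentrations surrounding the appropriate level; five concentrations were tested over 48 hours in 96-well plates. TGI: concentration producing complete growth inhibition.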
# What was measured:
# Test in all cases: DTP human tumour cell line panel, 48 h
# SNB-75 CNS = test system: SNB-75 CNS
# EKVX NSCLC = test system: EKVX NSCLC
# M19-MEL melanoma = test system: M19-MEL melanoma
# SNB-78 CNS = test system: SNB-78 CNS
# NCI-H23 lung = test system: NCI-H23 lung
# COLO 205 colon = test system: COLO 205 colon
# CCRF-CEM leukemia = test system: CCRF-CEM leukemia
# A498 renal = test system: A498 renal
# HCC-2998 colon = test system: HCC-2998 colon
# SK-OV-3 ovarian = test system: SK-OV-3 ovarian
# SF-268 CNS = test system: SF-268 CNS
# SK-MEL-5 melanoma = test system: SK-MEL-5 melanoma
# OVCAR-3 ovarian = test system: OVCAR-3 ovarian
# IGROV1 ovarian = test system: IGROV1 ovarian
# 786-0 renal = test system: 786-0 renal
# K-562 leukemia = test system: K-562 leukemia
# M14 melanoma = test system: M14 melanoma
# A549 NSCLC = test system: A549 NSCLC
# DMS 273 small cell lung = test system: DMS 273 small cell lung
# OVCAR-4 ovarian = test system: OVCAR-4 ovarian
# TK-10 renal = test system: TK-10 renal
# DLD-1 colon = test system: DLD-1 colon
# LXFL 529 NSCLC = test system: LXFL 529 NSCLC
# OVCAR-8 ovarian = test system: OVCAR-8 ovarian
# DMS 114 small cell lung = test system: DMS 114 small cell lung
# XF 498 CNS = test system: XF 498 CNS
# KM12 colon = test system: KM12 colon
# SW-620 colon = test system: SW-620 colon
# SK-MEL-28 melanoma = test system: SK-MEL-28 melanoma
# MOLT-4 leukemia = test system: MOLT-4 leukemia
# MALME-3M melanoma = test system: MALME-3M melanoma
# LOX IMVI melanoma = test system: LOX IMVI melanoma
# HT29 colon = test system: HT29 colon
# ACHN renal = test system: ACHN renal
# SR leukemia = test system: SR leukemia
# SF-539 CNS = test system: SF-539 CNS
# RPMI-8226 leukemia = test system: RPMI-8226 leukemia
# SF-295 CNS = test system: SF-295 CNS
# UACC-62 melanoma = test system: UACC-62 melanoma
# U251 CNS = test system: U251 CNS
# HCT-15 colon = test system: HCT-15 colon
# NCI-H460 lung = test system: NCI-H460 lung
# RXF 393 renal = test system: RXF 393 renal
# SN12C renal = test system: SN12C renal
# NCI-H522 lung = test system: NCI-H522 lung
# UO-31 renal = test system: UO-31 renal
# HOP-92 NSCLC = test system: HOP-92 NSCLC
# HOP-62 NSCLC = test system: HOP-62 NSCLC
# SK-MEL-2 melanoma = test system: SK-MEL-2 melanoma
# CAKI-1 renal = test system: CAKI-1 renal
# OVCAR-5 ovarian = test system: OVCAR-5 ovarian
# KM20L2 colon = test system: KM20L2 colon
# NCI-H226 lung = test system: NCI-H226 lung
# HL-60(TB) leukemia = test system: HL-60(TB) leukemia
# UACC-257 melanoma = test system: UACC-257 melanoma
# SNB-19 CNS = test system: SNB-19 CNS
# HCT-116 colon = test system: HCT-116 colon
smiles,measurement,setting,value
O=C1C2c3[nH]c4ccccc4c3C3CCCC3C2C(=O)N1c1ccccc1 (centres undefined),TGI,SNB-75 CNS,> 100 µM
same,TGI,EKVX NSCLC,> 100 µM
same,TGI,M19-MEL melanoma,> 100 µM
same,TGI,SNB-78 CNS,> 100 µM
same,TGI,NCI-H23 lung,> 100 µM
same,TGI,COLO 205 colon,> 100 µM
same,TGI,CCRF-CEM leukemia,> 100 µM
same,TGI,A498 renal,> 100 µM
same,TGI,HCC-2998 colon,> 100 µM
same,TGI,SK-OV-3 ovarian,> 100 µM
same,TGI,SF-268 CNS,> 100 µM
same,TGI,SK-MEL-5 melanoma,> 100 µM
same,TGI,OVCAR-3 ovarian,> 100 µM
same,TGI,IGROV1 ovarian,> 100 µM
same,TGI,786-0 renal,> 100 µM
same,TGI,K-562 leukemia,> 100 µM
same,TGI,M14 melanoma,> 100 µM
same,TGI,A549 NSCLC,> 100 µM
same,TGI,DMS 273 small cell lung,> 100 µM
same,TGI,OVCAR-4 ovarian,> 100 µM
same,TGI,TK-10 renal,> 100 µM
same,TGI,DLD-1 colon,> 100 µM
same,TGI,LXFL 529 NSCLC,> 100 µM
same,TGI,OVCAR-8 ovarian,> 100 µM
same,TGI,DMS 114 small cell lung,> 100 µM
same,TGI,XF 498 CNS,> 100 µM
same,TGI,KM12 colon,> 100 µM
same,TGI,SW-620 colon,> 100 µM
same,TGI,SK-MEL-28 melanoma,> 100 µM
same,TGI,MOLT-4 leukemia,> 100 µM
same,TGI,MALME-3M melanoma,> 100 µM
same,TGI,LOX IMVI melanoma,> 100 µM
same,TGI,HT29 colon,> 100 µM
same,TGI,ACHN renal,> 100 µM
same,TGI,SR leukemia,> 100 µM
same,TGI,SF-539 CNS,> 100 µM
same,TGI,RPMI-8226 leukemia,> 100 µM
same,TGI,SF-295 CNS,> 100 µM
same,TGI,UACC-62 melanoma,> 100 µM
same,TGI,U251 CNS,> 100 µM
same,TGI,HCT-15 colon,> 100 µM
same,TGI,NCI-H460 lung,> 100 µM
same,TGI,RXF 393 renal,> 100 µM
same,TGI,SN12C renal,> 100 µM
O=C(Cn1ccnc1[N+](=O)[O-])c1ccccc1,TGI,NCI-H522 lung,> 100 µM
same,TGI,SNB-75 CNS,> 100 µM
same,TGI,EKVX NSCLC,> 100 µM
same,TGI,UO-31 renal,> 100 µM
same,TGI,M19-MEL melanoma,> 100 µM
same,TGI,NCI-H23 lung,> 100 µM
same,TGI,COLO 205 colon,> 100 µM
same,TGI,CCRF-CEM leukemia,> 100 µM
same,TGI,A498 renal,> 100 µM
same,TGI,HOP-92 NSCLC,> 100 µM
same,TGI,HOP-62 NSCLC,> 100 µM
same,TGI,HCC-2998 colon,> 100 µM
same,TGI,SK-OV-3 ovarian,> 100 µM
same,TGI,SF-268 CNS,> 100 µM
same,TGI,SK-MEL-5 melanoma,> 100 µM
same,TGI,SK-MEL-2 melanoma,> 100 µM
same,TGI,OVCAR-3 ovarian,> 100 µM
same,TGI,IGROV1 ovarian,> 100 µM
same,TGI,786-0 renal,> 100 µM
same,TGI,CAKI-1 renal,> 100 µM
same,TGI,OVCAR-5 ovarian,> 100 µM
same,TGI,KM20L2 colon,> 100 µM
same,TGI,K-562 leukemia,> 100 µM
same,TGI,NCI-H226 lung,> 100 µM
same,TGI,M14 melanoma,> 100 µM
same,TGI,A549 NSCLC,> 100 µM
same,TGI,DMS 273 small cell lung,> 100 µM
same,TGI,OVCAR-4 ovarian,> 100 µM
same,TGI,TK-10 renal,> 100 µM
same,TGI,DLD-1 colon,> 100 µM
same,TGI,LXFL 529 NSCLC,> 100 µM
same,TGI,HL-60(TB) leukemia,> 100 µM
same,TGI,OVCAR-8 ovarian,> 100 µM
same,TGI,XF 498 CNS,> 100 µM
same,TGI,KM12 colon,> 100 µM
same,TGI,SW-620 colon,> 100 µM
same,TGI,SK-MEL-28 melanoma,> 100 µM
same,TGI,MOLT-4 leukemia,> 100 µM
same,TGI,UACC-257 melanoma,> 100 µM
same,TGI,MALME-3M melanoma,> 100 µM
same,TGI,LOX IMVI melanoma,> 100 µM
same,TGI,HT29 colon,> 100 µM
same,TGI,ACHN renal,> 100 µM
same,TGI,SNB-19 CNS,> 100 µM
same,TGI,SF-539 CNS,> 100 µM
same,TGI,RPMI-8226 leukemia,> 100 µM
same,TGI,SF-295 CNS,> 100 µM
same,TGI,UACC-62 melanoma,> 100 µM
same,TGI,HCT-15 colon,> 100 µM
same,TGI,NCI-H460 lung,> 100 µM
same,TGI,RXF 393 renal,> 100 µM
same,TGI,SN12C renal,> 100 µM
COc1ccc(-c2cc(=O)c3c(OC)cccc3o2)c(OC)c1OC,TGI,NCI-H522 lung,> 100 µM
same,TGI,SNB-75 CNS,74.4 µM
same,TGI,M19-MEL melanoma,> 100 µM
same,TGI,SNB-78 CNS,> 100 µM
same,TGI,NCI-H23 lung,> 100 µM
same,TGI,COLO 205 colon,> 100 µM
same,TGI,CCRF-CEM leukemia,> 100 µM
same,TGI,A498 renal,> 100 µM
same,TGI,HOP-92 NSCLC,> 100 µM
same,TGI,HOP-62 NSCLC,> 100 µM
same,TGI,HCC-2998 colon,> 100 µM
same,TGI,SK-OV-3 ovarian,> 100 µM
same,TGI,SF-268 CNS,> 100 µM
same,TGI,SK-MEL-5 melanoma,> 100 µM
same,TGI,HCT-116 colon,> 100 µM
same,TGI,SK-MEL-2 melanoma,> 100 µM
same,TGI,OVCAR-3 ovarian,> 100 µM
same,TGI,IGROV1 ovarian,> 100 µM
same,TGI,786-0 renal,> 100 µM
same,TGI,CAKI-1 renal,> 100 µM
same,TGI,OVCAR-5 ovarian,> 100 µM
same,TGI,KM20L2 colon,> 100 µM
same,TGI,K-562 leukemia,> 100 µM
same,TGI,NCI-H226 lung,> 100 µM
same,TGI,M14 melanoma,> 100 µM
same,TGI,A549 NSCLC,> 100 µM
same,TGI,DMS 273 small cell lung,> 100 µM
same,TGI,OVCAR-4 ovarian,> 100 µM
same,TGI,TK-10 renal,> 100 µM
same,TGI,DLD-1 colon,> 100 µM
same,TGI,LXFL 529 NSCLC,> 100 µM
same,TGI,HL-60(TB) leukemia,> 100 µM
same,TGI,OVCAR-8 ovarian,> 100 µM
same,TGI,DMS 114 small cell lung,> 100 µM
same,TGI,KM12 colon,> 100 µM
same,TGI,SW-620 colon,> 100 µM
same,TGI,SK-MEL-28 melanoma,> 100 µM
same,TGI,MOLT-4 leukemia,> 100 µM
same,TGI,UACC-257 melanoma,> 100 µM
same,TGI,MALME-3M melanoma,> 100 µM
same,TGI,LOX IMVI melanoma,> 100 µM
same,TGI,HT29 colon,> 100 µM
same,TGI,ACHN renal,> 100 µM
same,TGI,SR leukemia,> 100 µM
same,TGI,SF-539 CNS,> 100 µM
same,TGI,RPMI-8226 leukemia,> 100 µM
same,TGI,SF-295 CNS,> 100 µM
same,TGI,UACC-62 melanoma,> 100 µM
same,TGI,U251 CNS,> 100 µM
same,TGI,HCT-15 colon,> 100 µM
same,TGI,NCI-H460 lung,> 100 µM
same,TGI,RXF 393 renal,> 100 µM
same,TGI,SN12C renal,> 100 µM
